Data published in patent US20070129344A1, “Bicyclic 6-alkylidene-penem beta-lactamase inhibitors and beta-lactam antibiotic combination: a broad spectrum antibiotic” (priority 2005, published 2007).
In brackets after ≈: the same amount, converted by molar mass. Where a name gives a salt, the structure may show the parent alone. Read-outs that look alike come from different tables or passages of the source.

Legend:
[1] = test system: E. cloacae GC 1712 AmpC-inducible; test: MIC microbroth dilution; β-lactamase class C; format: cell-based
Protocol: (§1) The in vitro activities of the antibiotics were determined by the microbroth dilution method as recommended by the National Committee for Clinical Laboratory Standards (NCCLS). (NCCLS. 2000. Methods for Dilution Antimicrobial Susceptibility Tests for Bacteria That Grow Aerobically; Approved Standards: M7-A5, vol. 19. National Committee for Clinical Laboratory Standards, Villanova, Pa.). Mueller-Hinton II broth (MHBII)(BBL Cockeysville, Md.), was used for the testing procedure. […]. The plates were incubated for 18-22 hours at 35° C. in ambient air.

[2] = test system: S. marcescens PT 696 Inducible AmpC; test: MIC microbroth dilution; β-lactamase class C; format: cell-based; settings: Serratia marcescens
Protocol: as §1

[3] = test system: E. cloacae GC 4142 (AmpC); test: MIC microbroth dilution; β-lactamase class C; format: cell-based; settings: Enterobacter cloacae
Protocol: as §1

[4] = test system: K. pneumoniae GC 7822 Act 1; test: MIC microbroth dilution; β-lactamase class C; format: cell-based
Protocol: as §1

[5] = test system: E. coli GC 2894 (AmpC); test: MIC microbroth dilution; β-lactamase class C; format: cell-based; settings: Escherichia coli
Protocol: as §1

[6] = test system: K. pneumoniae GC 7820 Act 1; test: MIC microbroth dilution; β-lactamase class C; format: cell-based; settings: Klebsiella pneumoniae, GC7820ACT1, K. pneumoniae GC 7820, read-out: MIC
Protocol: as §1

[7] = test system: C. freundii GC 4164 Inducible AmpC; test: MIC microbroth dilution; β-lactamase class C; format: cell-based
Protocol: as §1

[8] = test system: S. marcescens GC 4145 Inducible AmpC; test: MIC microbroth dilution; β-lactamase class C; format: cell-based; settings: Serratia marcescens
Protocol: as §1

[9] = test system: K. pneumoniae GC 7823 Fox 5; test: MIC microbroth dilution; β-lactamase class C; format: cell-based; settings: Klebsiella pneumoniae, GC7823FOX5, K. pneumoniae GC 7823, read-out: MIC
Protocol: as §1

[10] = test system: E. aerogenes 1697-MP GC 7845 AmpC; test: MIC microbroth dilution; β-lactamase class C; format: cell-based; settings: E. aerogenes GC 7845
Protocol: as §1

[11] = test system: K. pneumoniae GC 7821 DHA 1; test: MIC microbroth dilution; β-lactamase class C; format: cell-based; settings: Klebsiella pneumoniae, GC7821DHA1, K. pneumoniae GC 7821, read-out: MIC
Protocol: as §1

[12] = test system: A. baumannii GC 7687 AmpC; test: MIC microbroth dilution; β-lactamase class C; format: cell-based
Protocol: as §1

[13] = test system: P. aeruginosa GC 3153 Inducible AmpC; test: MIC microbroth dilution; β-lactamase class C; format: cell-based
Protocol: as §1

[14] = test system: E. coli GC 2009 (TEM-10); test: MIC microbroth dilution; β-lactamase class A (ESBL); format: cell-based
Protocol: as §1

[15] = test system: A. baumannii GC 6662 IMI-R; test: MIC microbroth dilution; class PBP (penicillin binding protein); format: cell-based
Protocol: as §1

[16] = test system: A. baumannii GC 6660 IMI-R; test: as above; format: cell-based
Protocol: as §1

[17] = test system: A. baumannii GC 6661 IMI-R; test: as above; format: cell-based
Protocol: as §1

[18] = test system: S. maltophilia GC 1712 (L1); test: MIC microbroth dilution; β-lactamase class B; format: cell-based
Protocol: as §1

[19] = test system: S. typhimurium GC 4198 SHV-1 CTX-M-5; test: MIC microbroth dilution; β-lactamase class A, A (ESBL); format: cell-based
Protocol: as §1

[20] = test system: E. coli GAR 5929 TEM, OXA, Act-1, CTX (By PCR only); test: MIC microbroth dilution; β-lactamase class A, C, D; format: cell-based
Protocol: as §1

[21] = test system: E. coli GC 2906 (Imi-1); test: MIC microbroth dilution; β-lactamase class A (Cb'ase); format: cell-based; settings: Escherichia coli, Cefepime alone, control of Compound 1 test
Protocol: as §1

[22] = test system: A. baumannii PT 9444 PTZ-R; test: MIC microbroth dilution; β-lactamase class not determined; format: cell-based
Protocol: as §1

[23] = test system: E. coli GC 2920 (IRT-2); test: MIC microbroth dilution; β-lactamase class A (IRT); format: cell-based
Protocol: as §1

[24] = test system: E. coli GC 2295 TEM-1 + AmpC; test: MIC microbroth dilution; β-lactamase class A, C; format: cell-based
Protocol: as §1

[25] = test system: A. baumannii GC 7692 TEM-1, AmpC; test: MIC microbroth dilution; β-lactamase class A, C; format: cell-based
Protocol: as §1

[26] = target: class A β-lactamase TEM-1 (Escherichia coli, UniProt P62593); test: β-Lactamase inhibition IC50 (nitrocefin, spectrophotometric); format: biochemical, E. coli; settings: enzyme 4.3 nM, 10 min preincubation at 25° C.
Sequence of class A β-lactamase TEM-1 (P62593 24-286 limits assumed): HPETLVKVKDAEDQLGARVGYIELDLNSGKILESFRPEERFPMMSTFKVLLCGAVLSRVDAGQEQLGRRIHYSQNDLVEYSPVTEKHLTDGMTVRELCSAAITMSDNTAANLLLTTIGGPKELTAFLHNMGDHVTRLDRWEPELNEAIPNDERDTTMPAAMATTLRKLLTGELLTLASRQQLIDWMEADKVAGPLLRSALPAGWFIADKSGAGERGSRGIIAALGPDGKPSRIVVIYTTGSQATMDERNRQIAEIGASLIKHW
Protocol: β-Lactamase inhibitory activity of the penem inhibitors was determined spectrophotometrically as described by Bush et al., [Bush, K., Macalintal, C., Rasmussen, B. A., Lee, V. and Yang, Y. Antimicrobial Agents and Chemotherapy 1993, 37, 851]. Homogeneously purified class A β-lactamases TEM-1 from E. coli and Imi-1 from Enterobacter cloacae, class B enzyme CcrA from Bacteroides fragilis and class C enzyme AmpC from Enterobacter cloacae were employed in the assay. The enzyme concentrations for TEM-1, Imi-1, CcrA and AmpC were 4.3, 7.1, 1.2 and 2.1 nM, respectively. A wide range of inhibitor concentrations were prepared in 50 mM PO4, pH 7.0 to include the possible IC50 values. The substrate used to initiate the enzyme reaction was nitrocefin at 50 μg/ml in the same buffer as the inhibitor. Initially the enzyme and inhibitor (20 μl each) were preincubated for 10 minutes at 25° C. prior to the addition of 160 μl volume of nitrocefin. Initial rates of hydrolysis were monitored for 5 minutes at 495 nm using a Molecular Devices Spectra Max 250 with kinetic protocol of SoftMax Program. Readings from the Spectra Max 250 were exported and transferred to Microsoft Excel. The percent of inhibition of each inhibitor concentration was calculated based on the control enzyme activity. The inhibitor concentration that caused a 50% reduction in the enzymatic activity (IC50) was determined graphically.

[27] = Cefepime alone, control of Compound 2 test
[28] = Cefepime alone, control of Compound 1 test, read-out: MIC
[29] = Cefepime alone, control of Compound 2 test, read-out: MIC
[30] = Cefepime alone, control of Compound 1 test
[31] = Escherichia coli, Cefepime alone, control of Compound 1 test, read-out: MIC
[32] = Cefepime + 4 ug/ml Compound 2, read-out: MIC
[33] = Escherichia coli, Cefepime + 4 ug/ml Compound 2, read-out: MIC

CO/N=C(\C(=O)N[C@@H]1C(=O)N2C(C(=O)[O-])=C(C[N+]3(C)CCCC3)CS[C@H]12)c1csc(N)n1 [Cefepime, reference compound]
MIC [1, 27]: 0.12 mg/L (≈ 0.25 µM)
MIC ([1]; Enterobacter cloacae, Cefepime alone, control of Compound 1 test, read-out: MIC): 0.12 mg/L (≈ 0.25 µM)
MIC [2, 28]: 0.25 mg/L (≈ 0.52 µM)
MIC [2, 29]: 0.5 mg/L (≈ 1.04 µM)
MIC [3, 28]: > 16 mg/L
MIC [3, 29]: 8 mg/L (≈ 16.6 µM)
MIC [4, 27]: >16 mg/L
MIC ([4]; Klebsiella pneumoniae, GC7822ACT1, Cefepime alone, control of Compound 1 test, read-out: MIC): > 16 mg/L
MIC [5, 28]: 2 mg/L (≈ 4.16 µM)
MIC [5, 29]: 4 mg/L (≈ 8.32 µM)
MIC [6, 30]: 0.25 mg/L (≈ 0.52 µM)
MIC [6, 27]: 0.5 mg/L (≈ 1.04 µM)
MIC [7, 27]: 1 mg/L (≈ 2.08 µM)
MIC ([7]; Citrobacter freundii, Cefepime alone, control of Compound 1 test, read-out: MIC): 1 mg/L (≈ 2.08 µM)
MIC [8, 28]: 1 mg/L (≈ 2.08 µM)
MIC [8, 29]: 0.5 mg/L (≈ 1.04 µM)
MIC [9, 30]: 0.5 mg/L (≈ 1.04 µM)
MIC [9, 27]: 1 mg/L (≈ 2.08 µM)
MIC [10, 27]: 0.25 mg/L (≈ 0.52 µM)
MIC ([10]; Klebsiella aerogenes, Cefepime alone, control of Compound 1 test, read-out: MIC): 0.25 mg/L (≈ 0.52 µM)
MIC [11, 30]: 0.25 mg/L (≈ 0.52 µM)
MIC [11, 27]: 0.06 mg/L (≈ 0.125 µM)
MIC ([12]; Acinetobacter baumannii, GC7687AMPC, Cefepime alone, control of Compound 1 test, read-out: MIC): 16 mg/L (≈ 33.3 µM)
MIC [12, 27]: 16 mg/L (≈ 33.3 µM)
MIC [13, 27]: 16 mg/L (≈ 33.3 µM)
MIC ([13]; Pseudomonas aeruginosa, Cefepime alone, control of Compound 1 test, read-out: MIC): 16 mg/L (≈ 33.3 µM)
MIC ([14]; E. coli GC 2009, Cefepime alone, control of Compound 2 test): >16 mg/L
MIC ([14]; Escherichia coli): > 16 mg/L
MIC ([15]; Acinetobacter baumannii, GC6662IMIR, Cefepime alone, control of Compound 1 test, read-out: MIC): > 16 mg/L
MIC [15, 27]: >16 mg/L
MIC ([16]; Acinetobacter baumannii, GC6660IMIR, Cefepime alone, control of Compound 1 test, read-out: MIC): > 16 mg/L
MIC [16, 27]: >16 mg/L
MIC ([17]; Acinetobacter baumannii, GC6661IMIR, Cefepime alone, control of Compound 1 test, read-out: MIC): > 16 mg/L
MIC [17, 27]: >16 mg/L
MIC [18, 27]: >16 mg/L
MIC ([18]; Stenotrophomonas maltophilia, Cefepime alone, control of Compound 1 test, read-out: MIC): > 16 mg/L
MIC ([19]; S. typhimurium GC 4198, Cefepime alone, control of Compound 2 test): >16 mg/L
MIC ([19]; Salmonella enterica, TYPHIMURIUM): > 16 mg/L
MIC [20, 27]: >16 mg/L
MIC [20, 31]: > 16 mg/L
MIC [21]: 0.5 mg/L (≈ 1.04 µM)
MIC ([22]; A. baumannii PT 9444, Cefepime alone, control of Compound 2 test): >16 mg/L
MIC ([22]; Acinetobacter baumannii, PT9444PTZR): > 16 mg/L
MIC [23, 27]: 0.06 mg/L (≈ 0.125 µM)
MIC [23, 31]: 0.06 mg/L (≈ 0.125 µM)
MIC ([24]; E. coli GC 2295, Cefepime alone, control of Compound 2 test): 0.50 mg/L (≈ 1.04 µM)
MIC ([24]; Escherichia coli): 0.5 mg/L (≈ 1.04 µM)
MIC ([25]; A. baumannii GC 7692, Cefepime alone, control of Compound 2 test): >16 mg/L
MIC ([25]; Acinetobacter baumannii): > 16 mg/L

O=C(O)C1=CS[C@@H]2/C(=C\c3cn4c(n3)COCC4)C(=O)N12 [Compound 2, (5R), (6Z)-6-(5,6-Dihydro-8H-imidazo[2.1-c][1,4]oxazin-2-ylmethylene)-7-oxo-4-thia-1-azabicyclo[3.2.0]hept-2-ene-2-carboxylic Acid, Sodium Salt]
MIC ([1]; Enterobacter cloacae, Cefepime + 4 ug/ml Compound 2, read-out: MIC): 0.12 mg/L
MIC [2, 32]: 0.06 mg/L
MIC [3, 32]: 0.12 mg/L
MIC ([4]; Klebsiella pneumoniae, GC7822ACT1, Cefepime + 4 ug/ml Compound 2, read-out: MIC): 0.5 mg/L
MIC [5, 32]: 0.06 mg/L
MIC ([6]; Cefepime + 4 ug/ml Compound 2): 0.25 mg/L
MIC ([7]; Citrobacter freundii, Cefepime + 4 ug/ml Compound 2, read-out: MIC): 0.12 mg/L
MIC [8, 32]: 0.25 mg/L
MIC ([9]; Cefepime + 4 ug/ml Compound 2): 0.12 mg/L
MIC ([10]; Klebsiella aerogenes, Cefepime + 4 ug/ml Compound 2, read-out: MIC): 0.03 mg/L
MIC ([11]; Cefepime + 4 ug/ml Compound 2): 0.03 mg/L
MIC ([12]; Acinetobacter baumannii, GC7687AMPC, Cefepime + 4 ug/ml Compound 2, read-out: MIC): 16 mg/L
MIC ([13]; Pseudomonas aeruginosa, Cefepime + 4 ug/ml Compound 2, read-out: MIC): 8 mg/L
MIC ([15]; Acinetobacter baumannii, GC6662IMIR, Cefepime + 4 ug/ml Compound 2, read-out: MIC): > 16 mg/L
MIC ([16]; Acinetobacter baumannii, GC6660IMIR, Cefepime + 4 ug/ml Compound 2, read-out: MIC): > 16 mg/L
MIC ([17]; Acinetobacter baumannii, GC6661IMIR, Cefepime + 4 ug/ml Compound 2, read-out: MIC): 16 mg/L
MIC ([18]; Stenotrophomonas maltophilia, Cefepime + 4 ug/ml Compound 2, read-out: MIC): 16 mg/L
MIC [20, 33]: 0.12 mg/L
MIC [23, 33]: 0.06 mg/L
IC50 [26]: 0.6 nM
